For series [1] the following is noted: continuous administration of FLU for 2 weeks; cited from earlier work.
The nature of series [2]: Stability of the analytes in QC samples (LC-MS/MS method validation). It is filed as physicochemical, rat. The conditions noted are these: n = 5. As to the method: Quality control (QC) samples were prepared in the same way as mentioned above. […] All stability studies were evaluated at low, medium, and high QC levels with five determinations for each test. The relative standard deviations (RSDs) were used to evaluate the stability of the analytes. The RSD was expected to be within ±15.0%.

For series [3] the following is noted: rat, in vivo, po, 1.8 mg/kg.
A short description of a further series: in vivo. The conditions noted are these: Sprague-Dawley, rat, po, 1.8 mg/kg.
Series [4] can be described thus: Pharmacokinetics of fluoxetine and its metabolite norfluoxetine in rat plasma after oral fluoxetine with or without CSGS for 14 d (LC-MS/MS).

The term Tmax denotes the time at which the peak concentration occurs. As usually defined, the Cmax is the peak of the concentration-time curve. Broadly, the CL/F is the apparent clearance, not corrected for the fraction that reaches the circulation. The MRT last is the average time that molecules of a dose stay in the body. One may read the half-life as the time needed for the level to fall by half in the phase considered. Low values mean rapid decline, high ones slow decline.

For `COc1ccc2c(c1)[C@]13CCCC[C@@H]1[C@H](C2)N(C)CC3` [dextromethorphan], the “increase of AUC” value in series [1] is on record as 27 times.
Regarding `CNCCC(Oc1ccc(C(F)(F)F)cc1)c1ccccc1` (stereo not drawn) [fluoxetine], the “Measured C, at room temperature for 4 h” value in series [2] (QC concentration 1 ng/ml) stood at 1.010 ± 0.028 ng/mL; in series [2] (QC concentration 4 ng/ml), 3.965 ± 0.210 ng/mL; in series [2] (QC concentration 16 ng/ml) it was 15.832 ± 0.536 ng/mL. The figures for the “Measured C, freeze-thaw three cycles” value in series [2] (QC concentration 1 ng/ml), in series [2] (QC concentration 4 ng/ml) and in series [2] (QC concentration 16 ng/ml) were 0.997 ± 0.012 ng/mL, 3.991 ± 0.212 ng/mL and 15.872 ± 0.845 ng/mL, respectively. Moreover, the “Measured C, −20°C for 4 weeks” value in series [2] (QC concentration 1 ng/ml) turned out to be 0.987 ± 0.018 ng/mL; in series [2] (QC concentration 4 ng/ml), 4.012 ± 0.231 ng/mL; in series [2] (QC concentration 16 ng/ml) it was 15.872 ± 0.654 ng/mL. Further, in series [3], the “AUC (0–∞) of fluoxetine” value is given as 12.20 ± 2.67 ug/L∗h. Also, in the series “in vivo”, the Tmax came out at 0.75 h. In addition, the peak concentration (Cmax) in the series “in vivo” (C max of fluoxetine) and in “in vivo” (Cmax of fluoxetine) was 2.19 ng/mL each time. For the same molecule, the CL/F in the series “in vivo” (CLz/F of fluoxetine) was 2490 mL/min/kg. Also, the mean residence time (MRT last) in the series “in vivo” (MRT (0–t) of fluoxetine) was determined as 7.67 ± 1.02 h. Also, the half-life in the series “in vivo” (t1/2z of fluoxetine) was 8.95 ± 7.5 h. Further, the “AUCs (0–∞) of FLU” value in series [4] (FLU group (fluoxetine 1.8 mg/kg·d for 14 d)) amounted to 12.20 ± 2.67 μg/L∗h; in series [4] (multiple dose group A (CSGS […]·d + fluoxetine 1.8 mg/kg·d)) it was 11.20 ± 3.86 μg/L∗h; in series [4] (multiple dose group B (CSGS 11.8 g/kg·d + fluoxetine 1.8 mg/kg·d)) it was 14.54 ± 3.22 μg/L∗h; in series [4] (multiple dose group C (CSGS 23.6 g/kg·d + fluoxetine 1.8 mg/kg·d)) it was 22.01 ± 4.49 μg/L∗h.
With `CC[C@H](C)C(=O)O[C@H]1C[C@@H](C)C=C2C=C[C@H](C)[C@H](CC[C@@H]3C[C@@H](O)CC(=O)O3)[C@H]21` [lovastatin], in series [1], the “effect on AUC” value is “did not affect”.
In the case of `Cc1ncc2n1-c1ccc(Cl)cc1C(c1ccccc1F)=NC2` [midazolam], the “effect on AUC” value in series [1] was “did not affect”.
Consider `NCCC(Oc1ccc(C(F)(F)F)cc1)c1ccccc1` (stereo not drawn) [norfluoxetine], for which, in series [2] (QC concentration 2 ng/ml), the “Measured C, at room temperature for 4 h” value was 1.943 ± 0.054 ng/mL; the “Measured C, freeze-thaw three cycles” value was 1.879 ± 0.045 ng/mL; the “Measured C, −20°C for 4 weeks” value was determined as 1.873 ± 0.044 ng/mL. Also, in series [2] (QC concentration 4 ng/ml), the “Measured C, at room temperature for 4 h” value was found to be 3.934 ± 0.186 ng/mL; the “Measured C, freeze-thaw three cycles” value was determined as 4.012 ± 0.231 ng/mL; the “Measured C, −20°C for 4 weeks” value was determined as 3.891 ± 0.156 ng/mL. In addition, in series [2] (QC concentration 8 ng/ml), the “Measured C, at room temperature for 4 h” value stood at 7.897 ± 0.234 ng/mL; the “Measured C, freeze-thaw three cycles” value is 7.987 ± 0.341 ng/mL; the “Measured C, −20°C for 4 weeks” value came to 7.871 ± 0.246 ng/mL.
`COc1ccc2[nH]c([S+]([O-])Cc3ncc(C)c(OC)c3C)nc2c1` (stereo not drawn) [omeprazole]: the “increase of AUC” value in series [1] is given as 7.1 times.

The record behind these values is PMC6907063, “The Herb-Drug Pharmacokinetic Interaction of Fluoxetine and Its Metabolite Norfluoxetine with a Traditional Chinese Medicine in Rats by LC-MS/MS” (Evidence-based Complementary and Alternative Medicine : eCAM, 2019).
